Laboratory results from patent US20250302845A1, “SELECTIVE DOPAMINE INCREASE” (SOBRERA PHARMA AB, priority 2022, published 2025).
“Also recorded” adds a separate entry of the source.

Columns and labels:
Design in all cases: species or system Wistar Han rat
[1] = tested on: dopamine (DA) in the dorsomedial striatum (DMS); assay: In vivo microdialysis of dopamine in dorsomedial striatum (Example 1)
Protocol: (§1) 95 adult male Wistar Han rats (Envigo, Horst, Netherlands) were used in all experiments, weighing 280 to 350 g at the time of surgery (corresponding to approximately 9-10 weeks of age). The animals were housed in groups of five per cage (55×35×20 cm) at constant room temperature (22° C.), relative humidity (65%), and regular dark-light conditions (lights on at 7 AM and off at 7 PM). […] The animals were allowed to acclimate to the animal facilities for at least one week before surgery. This study was approved by the Ethics Committee for Animal Experiments, Gothenburg, Sweden and conducted according to national laws and guidelines for the care and use of laboratory animals.
(§2) Nicotine ((−)-nicotine hydrogen tartrate salt, Sigma, Stockholm, Sweden), 95% ethanol (Kemetyl AB, Stockholm, Sweden), varenicline (6,7,8,9-tetrahydro-6,10-methano-6H-pyrazino[2,3-h][3]benzazepine tartrate; provided by Pfizer Global Research and Development) and N-methyl-N-[(3R)-3-phenyl-3-[4-(trifluoromethyl) phenoxy]propyl]-glycine (Org 24598) (Tocris, Bristol, United Kingdom) were dissolved in physiological saline solution (0.9% NaCl) and administered subcutaneous (nicotine and varenicline) or intraperitoneal (ethanol and Org 24598) at a volume of 2 ml/kg (nicotine and varenicline), 5 ml/kg for EtOH and 4 ml/kg for Org 24598. The pH of the nicotine solution was neutralized with bicarbonate to approximately 7.2-7.4.
(§3) The microdialysis experiments were performed as previously described (Clarke, et al., 2014, Increase in nucleus accumbens dopamine levels following local ethanol administration is not mediated by acetaldehyde, Alcohol Alcohol 49, 498-504; Danielsson et al., 2021, Differential dopamine release by psychosis-generating and non-psychosis-generating addictive substances in the nucleus accumbens and dorsomedial striatum, Transl Psychiatry 11, 472). Animals were anaesthetized with isoflurane before being mounted into a stereotaxic instrument (David Kopf Instruments, AgnTho's, Stockholm, Sweden). The animals were equipped with either a standard in-house made single probe placed in the nAc (A/P +1.85, M/L −1.2, D/V −7.8) or the DMS (A/P+1.2, M/L −1.4, D/V −5.5) (Paxinos, 2007, The rat brain in stereotaxic coordinates. Amsterdam u.a.: Elsevier, Academic Press, Amsterdam), or a custom-made dual microdialysis probe (FIG. 1), which permits simultaneous sampling from both the nAc and DMS. Two additional holes were drilled in the skull in order to allow anchoring screws to be fastened, and the probe and screws were set in place using Harvard cement (DAB Dental AB, Stockholm, Sweden). The animals were then placed in single housing cages and allowed to recover for 48 h prior to the microdialysis experiment.
On the day of the experiment, the animals were connected to a microperfusion pump (U-864 Syringe Pump, AgnTho's, Sweden) via a swivel, which allowed the animals to move around the cage freely. […]
(§4) Microdialysis samples were analyzed as previously described for DA (Clarke, et al., 2014, Increase in nucleus accumbens dopamine levels following local ethanol administration is not mediated by acetaldehyde, Alcohol Alcohol 49, 498-504). In brief, DA content was analyzed using high performance liquid chromatography (HPLC) with electrochemical detection, using an external standard containing 3.25 fmol/μl of DA to identify DA peaks and quantify DA content. The chromatograms were analyzed using the software Thermo Scientific Chromelion Chromatography System (CDS) Chromelion 7.

[2] = tested on: dopamine (DA) in the nucleus accumbens (nAc); assay: In vivo microdialysis of dopamine in nucleus accumbens (Example 1); conditions: for DA effect nAc vs DMS (brain region comparison over time): dual probe, Org 24598 9 mg/kg, varenicline 1.5 mg/kg
Protocol: as §1, §2, §3
On the day of the experiment, the animals were connected to a microperfusion pump (U-864 Syringe Pump, AgnTho's, Sweden) via a swivel, which allowed the animals to move around the cage freely. During the entire experiment, the probes were perfused with Ringer solution at a rate of 2 μl/min, and dialysate samples were collected every 20 min. Baseline sampling commenced after a 2-hour period, during which a balanced fluid exchange was established. Once at least three consecutive stable DA values were obtained (±10%), pharmacological treatment was administered, followed by a total of 180 minutes of sampling.
as §4

[3] = tested on: dopamine (DA) in the dorsomedial striatum (DMS); assay: In vivo microdialysis of dopamine in dorsomedial striatum (Example 2); conditions: 12 mg/kg i.p., dual probe, same Wistar rat, FIG. 5
Protocol: (§5) Adult male Wistar Han rats (Envigo, Horst, Netherlands) were used, weighing approximately 320 g at the time of surgery (corresponding to approximately 9-10 weeks of age). The animals were housed in groups of five per cage (55×35×20 cm) at constant room temperature (22° C.), relative humidity (65%), and regular dark-light conditions (lights on at 7 AM and off at 7 PM). All animals had ad libitum access to standard rat feed (Harlan Teklad, Envigo, Europe) and tap water. The animals were allowed to acclimate to the animal facilities for at least one week before surgery. This study was approved by the Ethics Committee for Animal Experiments, Gothenburg, Sweden and conducted according to national laws and guidelines for the care and use of laboratory animals.
(§6) The microdialysis experiments were performed as previously described (Clarke et al., 2014; Danielsson et al., 2021). […]
as §4, with “(Clarke” for “(Clarke,”, “2014).” for “2014, Increase in nucleus accumbens dopamine levels following local ethanol administration is not mediated by acetaldehyde, Alcohol Alcohol 49, 498-504).”

[4] = tested on: dopamine (DA) in the nucleus accumbens (nAc); assay: In vivo microdialysis of dopamine in nucleus accumbens (Example 2)
Protocol: as §5, §6
as §4, with “(Clarke” for “(Clarke,”, “2014).” for “2014, Increase in nucleus accumbens dopamine levels following local ethanol administration is not mediated by acetaldehyde, Alcohol Alcohol 49, 498-504).”

[5] = dual probe microdialysis, 0-180 min, Org 24598 9 mg/kg intraperitoneal, varenicline 1.5 mg/kg subcutaneous, alone or combined
[6] = two-way ANOVA, 0-180 min, alone or combined
[7] = single probe microdialysis, t=0-180 min, EtOH 2.5 g/kg intraperitoneal, nicotine 0.36 mg/kg subcutaneous, alone or combined
[8] = single probe microdialysis, t=0-180 min, EtOH 2.5 g/kg intraperitoneal, nicotine 0.36 mg/kg subcutaneous, alone or combined, listed as ethanol

Q: Which “effect on DMS DA vs vehicle (AUC)” value [1, 5] does the source give for `CN(CC[C@@H](Oc1ccc(C(F)(F)F)cc1)c1ccccc1)CC(=O)O` [Org 24598, N-methyl-N-[(3R)-3-phenyl-3-[4-(trifluoromethyl)phenoxy]propyl]-glycine] here?
A: minor DA increase

Q: What about the “effect on nAc DA vs vehicle (AUC)” value [2, 5] of the same molecule?
A: no significant effect; also recorded: minor DA increase

Q: And the “DA effect nAc vs DMS (brain region comparison over time)” value [2, 6]?
A: did not differ between the two areas

Q: `c1cnc2cc3c(cc2n1)[C@@H]1CNC[C@H]3C1` [varenicline, 7,8,9,10-tetrahydro-6,10-methano-6H-pyrazino[2,3-h][3]benzazepine] was tested. Which “effect on DMS DA vs vehicle (AUC)” value [1, 5] did it give?
A: small but significant elevation of DA over time

Q: What about the “DA effect nAc vs DMS (brain region comparison over time)” value [2, 6] of the same molecule?
A: did also not differ between brain regions

Q: `CN1CCCC1c1cccnc1.O=C(O)C(O)C(O)C(=O)O` (single isomer, unassigned; (-)) [nicotine, (−)-nicotine hydrogen tartrate salt] was tested. Which “effect on DMS DA vs vehicle (AUC)” value ([1]; rat, in vivo) did it give?
A: elevated DA significantly

Q: What about the “DA elevation nAc vs DMS (brain region comparison over time)” value ([2]; rat, in vivo) of the same molecule?
A: no effect by brain region on the DA elevation

Q: What about the “effect on nAc DA vs vehicle (AUC)” value ([2]; rat, in vivo) of the same molecule?
A: significant and substantial increase in accumbal DA

Q: Which “effect on dopamine levels in DMS” value [3] does the source give for `COc1cc(C(=O)NCC2(N(C)C)CCCC2)cc(OC)c1OCc1ccccc1.Cl` [Org 25543] here?
A: reduction in dopamine levels in DMS

Q: And the “effect on dopamine levels in nAc” value ([4]; 12 mg/kg i.p., dual probe, same Wistar rat, FIG. 5)?
A: increase in dopamine levels in nAc

Q: What about the “effect on dopamine in the nAc” value ([4]; 4 or 8 mg/kg i.p., systemic administration, FIG. 4) of the same molecule?
A: dose-dependent increase of dopamine in the nAc

Q: Which results are given for `CCO` [EtOH, ethanol]?
A: effect on DMS DA vs vehicle (AUC) [1, 7]: significantly increased DA over time; effect on DMS DA vs vehicle (AUC) [1, 8]: elevated DA significantly; effect on nAc DA vs vehicle (AUC) [2, 7]: transient increase in DA; effect on nAc DA vs vehicle (AUC) [2, 8]: not statistically significant; DA elevation nAc vs DMS (brain region comparison over time) ([2]; two-way ANOVA, t=0-180 min, EtOH 2.5 g/kg, nicotine 0.36 mg/kg, alone or combined): did not produce statistically different DA elevations in the nAc and the DMS
